Test results: PubChem BioAssay (NCI)
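Method: 48-hour compound exposure of cells in 96-well plates, five concentrations, linear interpolation of endpoints. The concentration for 50% growth inhibition is given as GI50. Definition used: TGI = concentration required for complete inhibition of growth.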

How the values were obtained:
Test in all cases: DTP human tumour cell line panel, 48 h
[1] = system: 786-0 renal
[2] = system: A498 renal
[3] = system: A549 NSCLC
[4] = system: ACHN renal
[5] = system: CAKI-1 renal
[6] = system: COLO 205 colon
[7] = system: DU-145 prostate
[8] = system: EKVX NSCLC
[9] = system: HCC-2998 colon
[10] = system: HCT-116 colon
[11] = system: HCT-15 colon
[12] = system: HOP-62 NSCLC
[13] = system: HS 578T breast
[14] = system: HT29 colon
[15] = system: IGROV1 ovarian
[16] = system: K-562 leukemia
[17] = system: KM12 colon
[18] = system: LOX IMVI melanoma
[19] = system: M14 melanoma
[20] = system: MALME-3M melanoma
[21] = system: MCF7 breast
[22] = system: MDA-MB-231 breast
[23] = system: MDA-MB-435
[24] = system: MDA-N
[25] = system: MOLT-4 leukemia
[26] = system: NCI-H226 lung
[27] = system: NCI-H460 lung
[28] = system: NCI-H522 lung
[29] = system: NCI/ADR-RES ovarian
[30] = system: OVCAR-3 ovarian
[31] = system: OVCAR-4 ovarian
[32] = system: OVCAR-5 ovarian
[33] = system: OVCAR-8 ovarian
[34] = system: PC-3 prostate
[35] = system: RXF 393 renal
[36] = system: SF-268 CNS
[37] = system: SF-295 CNS
[38] = system: SF-539 CNS
[39] = system: SK-MEL-2 melanoma
[40] = system: SK-MEL-28 melanoma
[41] = system: SK-MEL-5 melanoma
[42] = system: SK-OV-3 ovarian
[43] = system: SN12C renal
[44] = system: SNB-19 CNS
[45] = system: SNB-75 CNS
[46] = system: SR leukemia
[47] = system: SW-620 colon
[48] = system: T-47D breast
[49] = system: U251 CNS
[50] = system: BT-549 breast
[51] = system: CCRF-CEM leukemia
[52] = system: HL-60(TB) leukemia
[53] = system: HOP-92 NSCLC
[54] = system: NCI-H23 lung
[55] = system: RPMI-8226 leukemia
[56] = system: TK-10 renal
[57] = system: UACC-257 melanoma
[58] = system: UACC-62 melanoma
[59] = system: UO-31 renal

Compound: CSc1cc(Cl)c(C)cc1S(=O)(=O)NC(=O)NNc1ccc(Cl)cc1
- TGI [1]: > 100 µM
- TGI [2]: > 100 µM
- TGI [3]: > 100 µM
- TGI [4]: > 100 µM
- TGI [5]: > 100 µM
- TGI [6]: > 100 µM
- TGI [7]: > 100 µM
- TGI [8]: > 100 µM
- TGI [9]: > 100 µM
- TGI [10]: > 100 µM
- TGI [11]: > 100 µM
- TGI [12]: > 100 µM
- TGI [13]: > 100 µM
- TGI [14]: > 100 µM
- TGI [15]: > 100 µM
- TGI [16]: > 100 µM
- TGI [17]: > 100 µM
- TGI [18]: > 100 µM
- TGI [19]: > 100 µM
- TGI [20]: > 100 µM
- TGI [21]: > 100 µM
- TGI [22]: > 100 µM
- TGI [23]: > 100 µM
- TGI [24]: > 100 µM
- TGI [25]: > 100 µM
- TGI [26]: > 100 µM
- TGI [27]: > 100 µM
- TGI [28]: > 100 µM
- TGI [29]: > 100 µM
- TGI [30]: > 100 µM
- TGI [31]: > 100 µM
- TGI [32]: > 100 µM
- TGI [33]: > 100 µM
- TGI [34]: > 100 µM
- TGI [35]: > 100 µM
- TGI [36]: > 100 µM
- TGI [37]: > 100 µM
- TGI [38]: > 100 µM
- TGI [39]: > 100 µM
- TGI [40]: > 100 µM
- TGI [41]: > 100 µM
- TGI [42]: > 100 µM
- TGI [43]: > 100 µM
- TGI [44]: > 100 µM
- TGI [45]: > 100 µM
- TGI [46]: > 100 µM
- TGI [47]: > 100 µM
- TGI [48]: > 100 µM
- TGI [49]: > 100 µM

Compound: COc1ccccc1-c1cc(=O)c2ccc(C)nc2[nH]1
- GI50 [1]: > 100 µM
- TGI [1]: > 100 µM
- TGI [2]: > 100 µM
- TGI [3]: > 100 µM
- TGI [4]: > 100 µM
- TGI [50]: > 100 µM
- TGI [5]: > 100 µM
- TGI [51]: > 100 µM
- TGI [6]: > 100 µM
- TGI [7]: > 100 µM
- TGI [8]: > 100 µM
- TGI [9]: > 100 µM
- GI50 [10]: 37.6 µM
- TGI [10]: > 100 µM
- TGI [11]: > 100 µM
- GI50 [52]: 73.8 µM
- TGI [52]: > 100 µM
- TGI [12]: > 100 µM
- TGI [53]: > 100 µM
- TGI [13]: > 100 µM
- TGI [14]: > 100 µM
- TGI [15]: > 100 µM
- TGI [16]: > 100 µM
- TGI [17]: > 100 µM
- TGI [18]: > 100 µM
- TGI [19]: > 100 µM
- TGI [20]: > 100 µM
- TGI [21]: > 100 µM
- TGI [22]: > 100 µM
- GI50 [23]: 22 µM
- TGI [23]: 48.7 µM
- GI50 [24]: 20.1 µM
- TGI [24]: 41.5 µM
- TGI [25]: > 100 µM
- TGI [26]: > 100 µM
- TGI [54]: > 100 µM
- GI50 [27]: 98.7 µM
- TGI [27]: > 100 µM
- TGI [28]: > 100 µM
- TGI [29]: > 100 µM
- GI50 [30]: > 100 µM
- TGI [30]: > 100 µM
- TGI [31]: > 100 µM
- TGI [32]: > 100 µM
- TGI [33]: > 100 µM
- GI50 [34]: > 100 µM
- TGI [34]: > 100 µM
- TGI [55]: > 100 µM
- TGI [35]: > 100 µM
- TGI [36]: > 100 µM
- GI50 [37]: > 100 µM
- TGI [37]: > 100 µM
- TGI [38]: > 100 µM
- TGI [39]: > 100 µM
- TGI [40]: > 100 µM
- GI50 [41]: 51.6 µM
- TGI [41]: > 100 µM
- TGI [42]: > 100 µM
- TGI [43]: > 100 µM
- TGI [44]: > 100 µM
- TGI [47]: > 100 µM
- TGI [48]: > 100 µM
- TGI [56]: > 100 µM
- GI50 [49]: > 100 µM
- TGI [49]: > 100 µM
- TGI [57]: > 100 µM
- TGI [58]: > 100 µM
- TGI [59]: > 100 µM
